Paper PMC3144732, “Rho-Rho kinase pathway in the actomyosin contraction and cell-matrix adhesion in immortalized human trabecular meshwork cells” (Molecular Vision, 2011)
“Also recorded” adds a separate entry of the source. Each block holds one molecule with its values, some of them ahead of it.

Tests used:
[1] = test system: MYPT1 phosphorylation at Thr853; assay: Western blot of MYPT1 phosphorylation at Thr853 in GTM3 cells; format: cell-based, human; settings: 1 h, serum-rich medium; for effect on MYPT1 phosphorylation at Thr853: 5 μM; for IC50: GTM3 cells, densitometry of western blot, read-out: IC50 for dephosphorylation of MYPT1 at Thr853
Method: (§1) Cell cultures of an immortalized human glaucomatous trabecular meshwork (GTM3) cell line were grown at 37 °C in 5% CO2 in Dulbecco’s Minimum Essential Medium (DMEM + Glutamax) supplemented with 10% fetal bovine serum and 10 μg/ml of gentamicin (Invitrogen, Grand Island, NY) as previously described. Upon reaching confluence, cells were divided using 0.05% trypsin. Cells of passages 13 to 20 were used in our experiments.
(§2) Following treatment with the desired drugs/agents, cells were rinsed in PBS and solubilized in 300 µl of 2× Laemmli sample buffer. The lysate was sonicated briefly and boiled for 5 min. Equal amounts of protein (30 μg) were loaded in 8% or 12% SDS–PAGE gels. Following electrophoresis, proteins were transferred to a nitrocellulose membrane (Biorad, Hercules, CA), blocked with 5% fat-free milk for 1 h, and incubated with specific phospho-MYPT1 or phospho-MLC antibodies overnight. The membranes were next incubated with the appropriate secondary antibodies for 1 h. The blots were finally washed and developed using an enhanced chemiluminescence kit (Pierce, Rockford, IL) according to the manufacturer’s instructions.
(§3) A one-way ANOVA was used to compare mean values for different treatments with Bonferroni’s post-test analysis (Prism 5.0 for Windows; GraphPad Software, Inc., San Diego, CA). Results are expressed as mean±SEM. For analysis of ECIS (electrical cell-substrate impedance sensing) data, normalized numerical values from individual experiments were pooled and expressed as mean±SEM. A p value of less than 0.05 was considered statistically significant. “n” denotes the number of independent experiments performed. […] The calculations assume that log [drug] versus response follow a sigmoidal shape and were performed with Prism 5.0. The reported values of R indicate goodness of fit.

[2] = test system: MYPT1 phosphorylation at Thr696; assay: Western blot of MYPT1 phosphorylation at Thr696 in GTM3 cells; format: cell-based, human; settings: 1 h, serum-rich medium; for IC50: GTM3 cells, densitometry of western blot, read-out: IC50 for dephosphorylation of MYPT1 at Thr696
Method: as §1, §2, §3

MLC phosphorylation = assay: Western blot of MLC phosphorylation (ppMLC) in GTM3 cells; format: cell-based, human; settings: 1 h, serum-rich medium, densitometry of western blot, read-out: IC50 for dephosphorylation of MLC
Method: as §1
as §2, with “The blots were finally washed and developed using an enhanced chemiluminescence kit (Pierce, Rockford, IL) according to the manufacturer’s instructions.” left out
A one-way ANOVA was used to compare mean values for different treatments with Bonferroni’s post-test analysis (Prism 5.0 for Windows; GraphPad Software, Inc., San Diego, CA). Results are expressed as mean±SEM. For analysis of ECIS (electrical cell-substrate impedance sensing) data, normalized numerical values from individual experiments were pooled and expressed as mean±SEM. […]

[3] = test system: GTM3 cells (actomyosin contraction); assay: Collagen gel contraction assay with GTM3 cells; format: cell-based, human; settings: for increase in the gel area (relaxation) compared with the control: 10 μM
Method: A collagen gel contraction assay was performed as previously described. The wells of 24-well culture plates were coated with 1% BSA at 37 °C for 1 h. Glaucomatous trabecular meshwork cells were trypsinized and resuspended in culture medium at a density of 1×10^7 cells/ml. Rat-tail collagen Type I (BD Biosciences, San Jose, CA), 10× DMEM (Sigma, St. Louis, MO), reconstitution buffer (pH 7.3), TM cell suspension, and distilled water were mixed on ice to obtain a final concentration of 1.9 mg/ml of collagen and a final cell density of 2×10^5 cells/ml. The resultant mixture (0.5 ml) was added to each well of the BSA-coated culture clusters, and collagen gel formation was induced by incubation at 37 °C for 90 min. Serum-rich or serum-free DMEM (0.5 ml), without or with the drugs, was then added on top of the gels. After 1 h, the gels were freed from the walls of the culture wells. They were subsequently imaged every 24 h for 2 days. The area was calculated using NIH ImageJ software.

[4] = test system: GTM3 cells (cell-matrix adhesion); assay: Electrical cell-substrate impedance sensing (ECIS), cell-matrix adhesion; format: cell-based, human
Method: Cells were seeded on gold electrode-plated culture plates (8W10E+) and placed in an incubator at 37 °C with humidified air and 5% CO2. The attachment and spreading of the cells on electrodes was monitored continuously at 4 kHz until the observed electrical resistance reached a plateau and stabilized. This usually occurred within 20–24 h after inoculation. Impedance to current flow was measured at different frequencies (25 Hz to 60 kHz) periodically before and after inoculation. After reaching the steady-state of electric-cell substrate resistance, cells were exposed to the ROCK inhibitors, and the impedance was assessed at different frequencies every 30 min. The change in the measured resistance normalized to that of the bare electrode was taken as a measure of cell-matrix adhesion as discussed further below.
ECIS involves the measurement of impedance to a small AC current applied across cells grown to confluence on planar gold microelectrodes. The measurement is non-invasive, and off-the-shelf instruments such as ECIS^TM 1600R (Applied Biophysics, Inc., Troy, NY) make use of a lock-in amplifier to measure small changes in electrical impedance at a high-temporal resolution. We have previously employed ECIS to assess the integrity of the apical junctional complex of the corneal endothelial monolayers. For epithelial monolayers, such as the corneal endothelium, the resistive component of the measured impedance implies trans-endothelial electrical resistance for current flow between the cells when confluent on the electrode. However, with non-epithelial cells, such as fibroblasts, measured impedance arises mainly out of resistance to current flow across the cell substrate (i.e., cell-matrix adhesion). In this study, we examined the dynamics of such cell-matrix resistance (i.e., resistive component of the measured impedance) with TM cells. […] This increase can be attributed to the attachment of cells to the substrate (gold electrode), which leads to an increased resistance to current flow. […]

GTM3 cells = assay: Cell morphology (DIC), stress fibers and focal adhesions (F-actin, paxillin staining); format: cell-based, human; settings: 1 h, serum-rich medium
Method: Cells were first treated for the indicated time period in the serum-rich medium described earlier. Following a brief rinse with PBS, cells were fixed with 4% paraformaldehyde for 10 min and then permeabilized with 0.1% Triton-X for 10 min. For phosphorylated MLC staining, cells were blocked with 10% goat serum + 3% BSA, and, for vinculin and paxillin staining, the cells were blocked with 10% FBS for 1 h. Cells were incubated in primary antibody overnight, followed by secondary antibody incubation for 1 h. Double staining for actin was performed by incubating cells in Texas-red conjugated phalloidin for 20 min. After extensive washing, coverslips were mounted using ProLong AntiFade (Molecular Probes, Eugene, OR). Images were acquired using a Leica SP5 (Leica Microsystems, Bannockburn, IL) confocal microscope. After similar treatments, DIC images of cells fixed on coverslips were also obtained using a Nikon E800 (Nikon Instruments, Melville, NY) microscope.

normal HTM cells = settings: 10 μM; cited from earlier work
[5] = test system: FAK (Tyr397) phosphorylation; assay: Serum-induced tyrosine phosphorylation of FAK (Tyr397), western blot; format: cell-based, human; settings: 1 μM pretreatment, 10% serum added to serum-starved cells
[6] = test system: paxillin (Tyr118) phosphorylation; assay: Serum-induced tyrosine phosphorylation of paxillin (Tyr118), western blot; format: cell-based, human; settings: 1 μM pretreatment, 10% serum added to serum-starved cells
[7] = rabbits; cited from earlier work

IC50 [1]: 658 nM
IC50 [2]: 2270 nM
IC50 (MLC phosphorylation): 1060 nM
SMILES: C[C@@H](N)[C@H]1CC[C@H](C(=O)Nc2ccncc2)CC1 [Y-27632]
effect on MYPT1 phosphorylation at Thr853 [1]: complete dephosphorylation
effect on MYPT1 phosphorylation at Thr696 ([2]; 5 μM): comparatively smaller reduction; also recorded: only slightly reduced; also recorded: only a marginal decrease
increase in the gel area (relaxation) compared with the control ([3]; 48 h, 10% serum): 50%
change in electrical cell-substrate resistance ([4]; 5 μM, up to 2 h): significant decrease in the peak resistance
change in cell shape (DIC images) (GTM3 cells; 5 μM): apparent shrinkage, with cells assuming a stellate appearance
effect on stress fibers and focal adhesions (GTM3 cells; 5 μM): complete loss of stress fibers and focal adhesions
gel contraction allowed (normal HTM cells): 30%

SMILES: Cc1ccc2c(c1)C(=O)C1(O)CCN(c3ccccc3)C1=N2 (stereo not shown) [blebbistatin]
increase in the gel area (relaxation) compared with the control ([3]; 48 h, 10% serum): 102±1.3%

IC50 [1]: 15 nM
IC50 [2]: 177 nM
IC50 (MLC phosphorylation): 14 nM
SMILES: C[C@@H](N)c1ccc(C(=O)Nc2ccnc3[nH]ccc23)cc1 [Y-39983]
effect on MYPT1 phosphorylation at Thr853 [1]: complete dephosphorylation
increase in the gel area compared with the control ([3]; 1 μM, 48 h, 10% serum): 86±5%
decrease in the contraction of the collagen gels ([3]; 5 μM): 100%
change in electrical cell-substrate resistance ([4]; 1 μM, up to 2 h): significant decrease in resistance; also recorded: rapid and more pronounced
change in cell shape (DIC images) (GTM3 cells; 1 μM): apparent shrinkage, with cells assuming a stellate appearance
effect on stress fibers and focal adhesions (GTM3 cells; 1 μM): complete loss of stress fibers and focal adhesions
effect on stress fibers and focal adhesions (GTM3 cells; 5 μM): loss of stress fibers
effect on serum-induced tyrosine phosphorylation of FAK at Tyr397 [5]: opposed
effect on serum-induced phosphorylation of paxillin at Tyr118 [6]: opposed
decrease in IOP compared to Y-27632 [7]: 10 fold

SMILES: C=C1[C@@H](C)[C@H]2[C@H](Cc3ccccc3)NC(=O)[C@]23[C@H](OC(C)=O)/C=C/[C@@](C)(O)C(=O)[C@@H](C)C/C=C/[C@H]3[C@@H]1O [cytochalasin D]
change in electrical cell-substrate resistance ([4]; 0.125 mg/ml): significant decrease in the measured resistance; also recorded: substantial decrease in the resistance
